Source: paper PMC6472001, “Phenolic Compounds from Humulus lupulus as Natural Antimicrobial Products: New Weapons in the Fight against Methicillin Resistant Staphylococcus aureus, Leishmania mexicana and Trypanosoma brucei Strains” (Molecules, 2019)

Experiments:
Assay type in all cases: cell-based
[1] = test system: Escherichia coli ATCC 25922; assay: First screening, agar dilution MIC
Experimental: (§1) Clinical bacterial isolates from human samples collected in Lille (France) and some collection strains were used. The first screening step on pathogenic bacteria was carried out with crude hydro-alcoholic extracts of different hop parts (Table 1). The second screening was performed using sub-extracts of cones on Gram-positive bacteria, including methicillin-sensitive Staphylococcus aureus (MSSA) and methicillin-resistant Staphylococcus aureus […] (Table 2). These tests were carried out on Petri dishes, Mueller-Hinton Agar (MHA) (Oxoid, UK) was mixed with the plant extract solution in MeOH at 5% (solvent control: 5% MeOH). Final extract concentrations in Petri dishes ranged from 1250 to 4.9 µg/mL. A multi-headed inoculator allowed spotting bacterial strains at 10^5 CFU/mL in cysteinated Ringer (CR) solution (Merck®, France). Minimal Inhibitory Concentrations (MICs) were visually determined after 24 h of incubation at 37 °C.

[2] = test system: Acinetobacter baumannii 9011; assay: First screening, agar dilution MIC
Experimental: as §1

[3] = test system: Pseudomonas aeruginosa 8131; assay: First screening, agar dilution MIC
Experimental: as §1

[4] = test system: Enterobacter cloacae 11053; assay: First screening, agar dilution MIC
Experimental: as §1

[5] = test system: Staphylococcus aureus 8147; assay: First screening, agar dilution MIC
Experimental: as §1

[6] = test system: Stenotrophomonas maltophilia; assay: First screening, agar dilution MIC
Experimental: as §1

[7] = test system: Citrobacter freundii 11041; assay: First screening, agar dilution MIC
Experimental: as §1

Escherichia coli 8138 = assay: First screening, agar dilution MIC
Experimental: as §1

[8] = test system: Staphylococcus lugdunensis T26A3; assay: First screening, agar dilution MIC
Experimental: as §1

[9] = test system: Klebsiella pneumoniae 11016; assay: First screening, agar dilution MIC
Experimental: as §1

[10] = test system: Citrobacter freundii 11042; assay: First screening, agar dilution MIC
Experimental: as §1

[11] = test system: Streptococcus agalactiae T53C2; assay: First screening, agar dilution MIC
Experimental: as §1

Salmonella sp. 11033 = assay: First screening, agar dilution MIC
Experimental: as §1

[12] = test system: Klebsiella pneumoniae 11017; assay: First screening, agar dilution MIC
Experimental: as §1

[13] = test system: Mycobacterium smegmatis 5003; assay: First screening, agar dilution MIC
Experimental: as §1

Corynebacterium T25-17 [14] = assay: First screening, agar dilution MIC
Experimental: as §1

[15] = test system: Providencia stuartii 11038; assay: First screening, agar dilution MIC
Experimental: as §1

[16] = test system: Pseudomonas aeruginosa ATCC 27583; assay: First screening, agar dilution MIC
Experimental: as §1

[17] = test system: Serratia marcescens 11056; assay: First screening, agar dilution MIC
Experimental: as §1

[18] = test system: Staphylococcus aureus 8146; assay: First screening, agar dilution MIC
Experimental: as §1

[19] = test system: Staphylococcus epidermidis 5001; assay: First screening, agar dilution MIC
Experimental: as §1

[20] = test system: Staphylococcus warneri T12A12; assay: First screening, agar dilution MIC
Experimental: as §1

Proteus mirabilis 11060 = assay: First screening, agar dilution MIC
Experimental: as §1

Enterococcus sp. 8153 = assay: First screening, agar dilution MIC
Experimental: as §1

[21] = test system: Enterobacter cloacae 11050; assay: First screening, agar dilution MIC
Experimental: as §1

[22] = test system: Enterococcus faecalis C159-6; assay: First screening, agar dilution MIC
Experimental: as §1

Escherichia coli 8157 = assay: First screening, agar dilution MIC
Experimental: as §1

[23] = test system: Enterobacter cloacae 11051; assay: First screening, agar dilution MIC
Experimental: as §1

[24] = test system: Acinetobacter baumannii 9010; assay: First screening, agar dilution MIC
Experimental: as §1

[25] = test system: Streptococcus agalactiae T25-7; assay: First screening, agar dilution MIC
Experimental: as §1

[26] = test system: Staphylococcus epidermidis 10282; assay: First screening, agar dilution MIC
Experimental: as §1

[27] = test system: Streptococcus dysgalactiae T46C14; assay: First screening, agar dilution MIC
Experimental: as §1

[28] = test system: Serratia marcescens 11057; assay: First screening, agar dilution MIC
Experimental: as §1

[29] = test system: Staphylococcus saprophyticus 08237; assay: Second screening, agar dilution MIC
Experimental: as §1

[30] = test system: Staphylococcus aureus T36B1; assay: Second screening, agar dilution MIC
Experimental: as §1

[31] = test system: Staphylococcus aureus 8147; assay: Second screening, agar dilution MIC; details: Table 2
Experimental: as §1

[32] = test system: Staphylococcus aureus T25.3; assay: Second screening, agar dilution MIC
Experimental: as §1

[33] = test system: Staphylococcus lugdunensis T26A3; assay: Second screening, agar dilution MIC; details: Table 2
Experimental: as §1

[34] = test system: Staphylococcus aureus T47A12; assay: Second screening, agar dilution MIC
Experimental: as §1

[35] = test system: Enterococcus faecalis T34-2; assay: Second screening, agar dilution MIC
Experimental: as §1

[36] = test system: Staphylococcus aureus T28.1; assay: Second screening, agar dilution MIC
Experimental: as §1

[37] = test system: Streptococcus agalactiae T38.2; assay: Second screening, agar dilution MIC
Experimental: as §1

Corynebacterium T25-17 [38] = assay: Second screening, agar dilution MIC; details: Table 2
Experimental: as §1

[39] = test system: Staphylococcus pettenkoferi T3.3; assay: Second screening, agar dilution MIC
Experimental: as §1

[40] = test system: Staphylococcus aureus T25.9; assay: Second screening, agar dilution MIC
Experimental: as §1

[41] = test system: Streptococcus agalactiae 13225; assay: Second screening, agar dilution MIC
Experimental: as §1

[42] = test system: Staphylococcus epidermidis 5001; assay: Second screening, agar dilution MIC; details: Table 2
Experimental: as §1

[43] = test system: Enterococcus faecalis T37A4; assay: Second screening, agar dilution MIC
Experimental: as §1

[44] = test system: Streptococcus agalactiae T40A2; assay: Second screening, agar dilution MIC
Experimental: as §1

[45] = test system: Staphylococcus aureus T26A4; assay: Second screening, agar dilution MIC
Experimental: as §1

[46] = test system: Staphylococcus aureus CIP 224; assay: Second screening, agar dilution MIC
Experimental: as §1

[47] = test system: Enterococcus faecalis T26-B7; assay: Second screening, agar dilution MIC
Experimental: as §1

[48] = test system: Staphylococcus aureus T25.10; assay: Second screening, agar dilution MIC
Experimental: as §1

[49] = test system: Enterococcus faecalis T39-C11; assay: Second screening, agar dilution MIC
Experimental: as §1

[50] = test system: Streptococcus agalactiae 13226; assay: Second screening, agar dilution MIC
Experimental: as §1

[51] = test system: Staphylococcus aureus T6.7; assay: Second screening, agar dilution MIC
Experimental: as §1

[52] = test system: Streptococcus agalactiae T25.7; assay: Second screening, agar dilution MIC
Experimental: as §1

[53] = test system: Staphylococcus aureus T1.1; assay: Second screening, agar dilution MIC
Experimental: as §1

CN[C@H](CC(C)C)C(=O)N[C@H]1C(=O)N[C@@H](CC(N)=O)C(=O)N[C@H]2C(=O)N[C@H]3C(=O)N[C@H](C(=O)N[C@H](C(=O)O)c4cc(O)cc(O)c4-c4cc3ccc4O)[C@H](O)c3ccc(c(Cl)c3)Oc3cc2cc(c3O[C@@H]2O[C@H](CO)[C@@H](O)[C@H](O)[C@H]2O[C@H]2C[C@](C)(N)[C@H](O)[C@H](C)O2)Oc2ccc(cc2Cl)[C@H]1O [VAN, Vancomycin]
Susceptibility to VAN [1]: R (R > 16) | Susceptibility to VAN [2]: R (R > 16) | Susceptibility to VAN [3]: R (R > 16) | Susceptibility to VAN [4]: R (R > 16) | Susceptibility to VAN [5]: S (Vancomycin (VAN) S ≤ 4) | Susceptibility to VAN [6]: R (R > 16) | Susceptibility to VAN [7]: R (R > 16) | Susceptibility to VAN (Escherichia coli 8138): R (R > 16) | Susceptibility to VAN [8]: S (Vancomycin (VAN) S ≤ 4) | Susceptibility to VAN [9]: R (R > 16) | Susceptibility to VAN [10]: R (R > 16) | Susceptibility to VAN [11]: S (Vancomycin (VAN) S ≤ 4) | Susceptibility to VAN (Salmonella sp. 11033): R (R > 16) | Susceptibility to VAN [12]: R (R > 16) | Susceptibility to VAN [13]: S (Vancomycin (VAN) S ≤ 4) | Susceptibility to VAN (Corynebacterium T25-17 [14]): S (Vancomycin (VAN) S ≤ 4) | Susceptibility to VAN [15]: R (R > 16) | Susceptibility to VAN [16]: R (R > 16) | Susceptibility to VAN [17]: R (R > 16) | Susceptibility to VAN [18]: S (Vancomycin (VAN) S ≤ 4) | Susceptibility to VAN [19]: S (Vancomycin (VAN) S ≤ 4) | Susceptibility to VAN [20]: R (R > 16) | Susceptibility to VAN (Proteus mirabilis 11060): R (R > 16) | Susceptibility to VAN (Enterococcus sp. 8153): S (Vancomycin (VAN) S ≤ 4) | Susceptibility to VAN [21]: R (R > 16) | Susceptibility to VAN [22]: S (Vancomycin (VAN) S ≤ 4) | Susceptibility to VAN (Escherichia coli 8157): R (R > 16) | Susceptibility to VAN [23]: R (R > 16) | Susceptibility to VAN [24]: R (R > 16) | Susceptibility to VAN [25]: S (Vancomycin (VAN) S ≤ 4) | Susceptibility to VAN [26]: S (Vancomycin (VAN) S ≤ 4) | Susceptibility to VAN [27]: S (Vancomycin (VAN) S ≤ 4) | Susceptibility to VAN [28]: R (R > 16) | Susceptibility to VAN [29]: S (Vancomycin (VAN) S ≤ 4) | Susceptibility to VAN [30]: S (Vancomycin (VAN) S ≤ 4) | Susceptibility to VAN [31]: S (Vancomycin (VAN) S ≤ 4) | Susceptibility to VAN [32]: S (Vancomycin (VAN) S ≤ 4) | Susceptibility to VAN [33]: S (Vancomycin (VAN) S ≤ 4) | Susceptibility to VAN [34]: S (Vancomycin (VAN) S ≤ 4) | Susceptibility to VAN [35]: S (Vancomycin (VAN) S ≤ 4) | Susceptibility to VAN [36]: S (Vancomycin (VAN) S ≤ 4) | Susceptibility to VAN [37]: S (Vancomycin (VAN) S ≤ 4) | Susceptibility to VAN (Corynebacterium T25-17 [38]): S (Vancomycin (VAN) S ≤ 4) | Susceptibility to VAN [39]: S (Vancomycin (VAN) S ≤ 4) | Susceptibility to VAN [40]: S (Vancomycin (VAN) S ≤ 4) | Susceptibility to VAN [41]: S (Vancomycin (VAN) S ≤ 4) | Susceptibility to VAN [42]: S (Vancomycin (VAN) S ≤ 4) | Susceptibility to VAN [43]: S (Vancomycin (VAN) S ≤ 4) | Susceptibility to VAN [44]: S (Vancomycin (VAN) S ≤ 4) | Susceptibility to VAN [45]: S (Vancomycin (VAN) S ≤ 4) | Susceptibility to VAN [46]: S (Vancomycin (VAN) S ≤ 4) | Susceptibility to VAN [47]: S (Vancomycin (VAN) S ≤ 4) | Susceptibility to VAN [48]: S (Vancomycin (VAN) S ≤ 4) | Susceptibility to VAN [49]: S (Vancomycin (VAN) S ≤ 4) | Susceptibility to VAN [50]: S (Vancomycin (VAN) S ≤ 4) | Susceptibility to VAN [51]: S (Vancomycin (VAN) S ≤ 4) | Susceptibility to VAN [52]: S (Vancomycin (VAN) S ≤ 4) | Susceptibility to VAN [53]: S (Vancomycin (VAN) S ≤ 4)
